The values that follow come from publication PMC4855151 (Scientific Reports, 2016).

This experiment deals with Cut2 (cutinase 2) (Pyricularia oryzae, UniProt G4MZV6). The settings on record: 12.5 nM Cut2, 0-8 mM substrate; assay buffer 25 mM NaH2PO4, pH 7.2.
Sequence of Cut2 (cutinase 2) (G4MZV6 19-214 limits assumed): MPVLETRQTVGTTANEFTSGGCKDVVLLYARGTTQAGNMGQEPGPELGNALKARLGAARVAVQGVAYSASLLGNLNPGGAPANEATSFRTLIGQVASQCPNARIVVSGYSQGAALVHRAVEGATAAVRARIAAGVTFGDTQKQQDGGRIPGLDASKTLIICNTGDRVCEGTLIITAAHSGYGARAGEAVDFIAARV

As to `CCCC(=O)Oc1ccc([N+](=O)[O-])cc1` [p-nitrophenyl butyrate], the kcat/Km entry is on record as “We determined kcat/Km for our recombinant Cut2 with p-nitrophenylbutyrate as substrate”.
